In US20050288377A1, “Use of calcimimetic as an adynamic bone disease related treatment” (priority 2004, published 2005):
Values joined by “and” are separate entries in the source; they are usually repeats but may differ in a detail not shown here. Identical values can stand only once. Counter-ions that a name gives are not always drawn. Like-named read-outs stand apart in the source and are kept apart here.

How the values were obtained:
[1] = tested on: parathyroid cancer patients; experiment: PTH levels and ratio in parathyroid cancer patients receiving Cinacalcet HCl (Table 2); type: in vivo, human; settings: SCR or D1 visit: prior to Cinacalcet HCl treatment (baseline); hydrochloride
Excerpt: See M. R. Rubin, et al., “A Molecular Form of PTH Distinct From PTH (1-84) is Produced in Parathyroid Carcinoma” (J. Bone & Mineral Metab., forthcoming).

ESRD subjects = experiment: Study of ESRD subjects treated with Cinacalcet and HECTOROL (Table 3); type: in vivo, human; settings: unlabelled summary line over patients 1-11
Excerpt: Table 3 provides the results of a study of several ESRD subjects treated with Cinacalcet and HECTOROL™ (Doxercalciferol synthetic Vitamin D). Pre and post treatment levels of total PTH, 1-84 PTH, 7-84 PTH, calcium, phosphate and alkaline phosphatase are provided together with the pre and post treatment ratio of 1-84 PTH/7-84 PTH and the pre and post treatment product of (calcium) x (phosphate).

[2] = tested on: chronic kidney disease patients on dialysis; settings: product insert; cited from earlier work
1-84 PTH/7-84 PTH ratio = settings: cited from earlier work

C[C@@H](NCCCc1cccc(C(F)(F)F)c1)c1cccc2ccccc12 [Cinacalcet HCl]
CPTH/TPTH [1]: 1.5 and 1.6 | Post CIP (7-84 PTH) (ESRD subjects; post treatment): 342.2 | Post Ca (ESRD subjects; post treatment): 8.7 | Post Phos (ESRD subjects; post treatment): 5.6 | Post alk phos (ESRD subjects; post treatment): 240.5 | Post-CAP (1-84 PTH) (ESRD subjects; post treatment): 458.3 | Post-Total (total PTH) (ESRD subjects; post treatment): 800.4 | Prot Ca xP (ESRD subjects; post treatment): 49.2 | Pre Ca (ESRD subjects; pre treatment): 9.5 | Pre Ca xP (ESRD subjects; pre treatment): 55.7 | Pre Phos (ESRD subjects; pre treatment): 5.9 | Pre alk phos (ESRD subjects; pre treatment): 220.2 | Pre-CAP (1-84 PTH) (ESRD subjects; pre treatment): 508.8 | Pre-CIP (7-84 PTH) (ESRD subjects; pre treatment): 355.3 | Pre-Total (total PTH) (ESRD subjects; pre treatment): 864.0 | risk for developing adynamic bone disease [2]: carries a risk for developing adynamic bone disease

C=C1/C(=C\C=C2/CCC[C@]3(C)[C@@H]([C@H](C)/C=C/[C@H](C)C(C)C)CC[C@@H]23)C[C@@H](O)C[C@@H]1O [Hectarale, Doxercalciferol]
Ca (1-84 PTH/7-84 PTH ratio; 2.5 μgm/dose, Nov. 1 2001 (Ca Nov. 8)): 8.1 mg/dL | PO4 (1-84 PTH/7-84 PTH ratio; 2.5 μgm/dose, Nov. 1 2001 (PO4 Nov.5-7)): 5.7 mg/dL | CAP (1-84 PTH/7-84 PTH ratio; 2.5 μgm/dose, Nov. 1 2001): 1462 pgm/mL | CAP/CIP (1-84 PTH/7-84 PTH ratio; 2.5 μgm/dose, Nov. 1 2001): 6.74 | CIP (1-84 PTH/7-84 PTH ratio; 2.5 μgm/dose, Nov. 1 2001): 217 pgm/mL | Ca × PO4 (1-84 PTH/7-84 PTH ratio; 2.5 μgm/dose, Nov. 1 2001): 46 | Intact PTH (1-84 PTH/7-84 PTH ratio; 2.5 μgm/dose, Nov. 1 2001): 1679 pgm/mL | Ca (1-84 PTH/7-84 PTH ratio; 4 μgm/dose, Aug. 17 2001 (Ca Sept. 21)): 8.3 mg/dL | PO4 (1-84 PTH/7-84 PTH ratio; 4 μgm/dose, Aug. 17 2001 (PO4 Sept. 21)): 7.0 mg/dL | CAP (1-84 PTH/7-84 PTH ratio; 4 μgm/dose, Aug. 17 2001): 1735 pgm/mL | CAP/CIP (1-84 PTH/7-84 PTH ratio; 4 μgm/dose, Aug. 17 2001): 0.95 | CIP (1-84 PTH/7-84 PTH ratio; 4 μgm/dose, Aug. 17 2001): 1824 pgm/mL | Ca × PO4 (1-84 PTH/7-84 PTH ratio; 4 μgm/dose, Aug. 17 2001): 58 | Intact PTH (1-84 PTH/7-84 PTH ratio; 4 μgm/dose, Aug. 17 2001): 3559 pgm/mL
